Test results taken from patent US20260325533A1, “CDK INHIBITOR COMPOUNDS” (ALEKSIA THERAPEUTICS, INC., priority 2023, published 2026).
Like-named read-outs stand apart in the source and are kept apart here.

Assays:
Type in all cases: biochemical
[1] = biological target: CDK1/CCNB1 (Homo sapiens, UniProt P06493); experiment: CDK1 homogeneous time-resolved fluorescence (HTRF) kinase assay; conditions: CDK1/CCNB
Procedure, shortened: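 Compounds, titrated 11 points in half-log steps typically from 10 μM, were incubated with enzyme for 20 min before ATP (1 mM) and ULight-labelled eIF4E-binding protein 1 peptide (50 nM) started a 60-min reaction at 23 °C. Phosphopeptide was detected by europium-antibody TR-FRET and IC50 values were derived.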

[2] = biological target: CDK4/CCND3 (Homo sapiens, UniProt P11802); experiment: CDK4 homogeneous time-resolved fluorescence (HTRF) kinase assay; conditions: CDK4/CCND
Procedure, shortened: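 IC50s derive from Lance 665 nm or 665/615 nm signals in 11-point, half-log dose series (top 10 μM, 1% DMSO). The enzyme, 1.5 nM CDK4/CCND3, phosphorylates 50 nM ULight-4E-BP1 peptide with 1 mM ATP over 60 min at 23 °C.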

[3] = biological target: CDK2/CCNE1 (Homo sapiens, UniProt P24941); experiment: CDK2 homogeneous time-resolved fluorescence (HTRF) kinase assay; conditions: <25 nM; CDK2/CCNE; read-out: CDK2/CCNE IC50, <25 nM
Procedure, shortened: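 An HTRF format measures CDK2/CCNE1 (3 nM) phosphorylating a 4E-BP1 Thr37/46 peptide at high (1 mM) ATP. Reactions run one hour at 23 °C, then EDTA-quenched and probed with Eu-labelled phospho-specific antibody.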

[4] = biological target: CDK6/CCND1 (Homo sapiens, UniProt Q00534); experiment: CDK6 homogeneous time-resolved fluorescence (HTRF) kinase assay; conditions: CDK6/CCND, 1 mM ATP
Procedure, shortened: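 Assay conditions: HEPES buffer containing 10 mM MgCl2, 1 mM EGTA, 2 mM DTT, 0.01% Tween 20; 1 nM CDK6/CCND1, 50 nM peptide substrate, 1 mM ATP. Detection after 60 min reaction used 2 nM europium antibody with 340 nm excitation. Potency fitted from half-log series, 11 points.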

[5] = >250 nM, read-out: CDK1/CCNB IC50 >250 nM
[6] = 25-250 nM, read-out: CDK4/CCND IC50, 25-250 nM
[7] = 25-250 nM, read-out: CDK6/CCND IC50, 25-250 nM
[8] = >250 nM, read-out: CDK4/CCND IC50, >250 nM
[9] = >250 nM, read-out: CDK6/CCND IC50, >250 nM

CDK4/CCND3, sequence (P11802 whole entry): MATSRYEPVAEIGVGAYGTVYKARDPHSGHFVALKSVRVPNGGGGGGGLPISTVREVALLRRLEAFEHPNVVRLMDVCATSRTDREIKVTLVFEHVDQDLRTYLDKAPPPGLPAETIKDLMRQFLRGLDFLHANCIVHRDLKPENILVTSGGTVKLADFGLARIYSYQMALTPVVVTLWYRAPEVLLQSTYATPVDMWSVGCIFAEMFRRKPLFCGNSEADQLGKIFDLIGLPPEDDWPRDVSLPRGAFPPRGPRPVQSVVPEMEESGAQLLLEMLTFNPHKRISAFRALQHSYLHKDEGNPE
CDK4/CCND3, sequence (P30281 whole entry partner): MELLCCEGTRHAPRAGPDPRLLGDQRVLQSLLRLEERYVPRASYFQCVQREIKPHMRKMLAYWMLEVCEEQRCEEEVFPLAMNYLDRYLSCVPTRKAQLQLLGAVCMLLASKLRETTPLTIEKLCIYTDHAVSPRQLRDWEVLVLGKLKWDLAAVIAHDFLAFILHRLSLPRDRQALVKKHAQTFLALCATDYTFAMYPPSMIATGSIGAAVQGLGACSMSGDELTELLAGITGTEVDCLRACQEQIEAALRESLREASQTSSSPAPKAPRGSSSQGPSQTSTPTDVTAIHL
CDK6/CCND1, sequence (Q00534 whole entry): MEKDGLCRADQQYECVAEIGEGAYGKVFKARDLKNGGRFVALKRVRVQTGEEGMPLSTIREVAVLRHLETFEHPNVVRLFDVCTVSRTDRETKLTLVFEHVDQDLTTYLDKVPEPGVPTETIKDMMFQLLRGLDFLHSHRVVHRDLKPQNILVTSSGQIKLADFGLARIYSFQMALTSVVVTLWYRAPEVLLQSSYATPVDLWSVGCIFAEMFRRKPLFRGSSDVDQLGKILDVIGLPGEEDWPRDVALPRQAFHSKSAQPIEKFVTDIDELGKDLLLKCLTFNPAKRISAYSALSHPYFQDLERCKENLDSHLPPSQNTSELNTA
CDK6/CCND1, sequence (P24385 whole entry partner): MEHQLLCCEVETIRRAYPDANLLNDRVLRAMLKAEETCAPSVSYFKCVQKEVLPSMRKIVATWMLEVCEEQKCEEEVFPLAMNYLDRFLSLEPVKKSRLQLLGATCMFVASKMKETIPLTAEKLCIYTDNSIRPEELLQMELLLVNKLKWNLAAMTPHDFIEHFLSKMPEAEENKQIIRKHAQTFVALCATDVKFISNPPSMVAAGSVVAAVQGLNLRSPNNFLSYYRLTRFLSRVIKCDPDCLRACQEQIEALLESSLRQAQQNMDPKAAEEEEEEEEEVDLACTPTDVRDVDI
CDK1/CCNB1, sequence (P06493 whole entry): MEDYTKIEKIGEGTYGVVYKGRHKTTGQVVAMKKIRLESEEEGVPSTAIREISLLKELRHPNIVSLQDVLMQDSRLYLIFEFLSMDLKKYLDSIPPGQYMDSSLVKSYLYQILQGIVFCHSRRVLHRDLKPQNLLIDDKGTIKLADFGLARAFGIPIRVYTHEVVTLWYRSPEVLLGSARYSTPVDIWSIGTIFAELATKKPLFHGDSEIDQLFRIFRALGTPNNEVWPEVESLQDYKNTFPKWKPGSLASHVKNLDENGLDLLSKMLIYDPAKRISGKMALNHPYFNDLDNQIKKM
CDK1/CCNB1, sequence (P14635 whole entry partner): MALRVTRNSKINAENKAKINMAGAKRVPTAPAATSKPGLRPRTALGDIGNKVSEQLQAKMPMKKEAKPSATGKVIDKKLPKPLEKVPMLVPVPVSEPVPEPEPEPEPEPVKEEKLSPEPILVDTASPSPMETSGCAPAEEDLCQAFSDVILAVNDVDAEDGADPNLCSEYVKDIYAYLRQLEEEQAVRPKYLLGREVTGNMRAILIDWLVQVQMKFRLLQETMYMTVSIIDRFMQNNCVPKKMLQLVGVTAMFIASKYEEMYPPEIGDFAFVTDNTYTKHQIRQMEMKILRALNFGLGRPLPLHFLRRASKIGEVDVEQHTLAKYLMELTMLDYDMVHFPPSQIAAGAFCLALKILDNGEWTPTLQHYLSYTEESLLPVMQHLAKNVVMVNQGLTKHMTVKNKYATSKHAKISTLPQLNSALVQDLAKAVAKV

SMILES	IC50 [1, 5]	IC50 [2, 6]	IC50 [3]	IC50 [4, 7]	IC50 ([1]; 25-250 nM, read-out: CDK1/CCNB IC50, 25-250 nM)	IC50 ([2]; <25 nM, read-out: CDK4/CCND IC50, column <25 nM)	IC50 [2, 8]	IC50 [4, 9]
Cc1c(-c2nccc3cnc(Nc4ccc(S(=O)(=O)NC5CCCN(CCO)C5)cc4)cc23)ccc2c1cnn2CC(C)(C)O (racemic) [Ex 760, 4-((5-(1-(2-hydroxy-2-methylpropyl)-4-methyl-1H-indazol-5-yl)-2,6-naphthyridin-3-yl)amino)-N-(1-(2-hydroxyethyl)piperidin-3-yl)benzenesulfonamide]	> 250 nM	25 to 250 nM	< 25 nM	25 to 250 nM				
Cc1c(-c2nccc3cnc(Nc4ccc(S(=O)(=O)NC5CCCN(C)C5)cc4)cc23)ccc2c1cnn2CC(C)(C)O (racemic) [Ex 761, 4-((5-(1-(2-hydroxy-2-methylpropyl)-4-methyl-1H-indazol-5-yl)-2,6-naphthyridin-3-yl)amino)-N-(1-methylpiperidin-3-yl)benzenesulfonamide]	> 250 nM	25 to 250 nM	< 25 nM	25 to 250 nM				
Cc1c(-c2nccc3cnc(Nc4ccc(S(=O)(=O)NC5CCCNC5)cc4)cc23)ccc2c1cnn2CC(C)(C)O (racemic) [Ex 792, 4-((5-(1-(2-hydroxy-2-methylpropyl)-4-methyl-1H-indazol-5-yl)-2,6-naphthyridin-3-yl)amino)-N-(piperidin-3-yl)benzenesulfonamide]	> 250 nM	25 to 250 nM	< 25 nM	25 to 250 nM				
COc1ccc(C(=O)N2CCC(Nc3cc4c(-c5ccc6c(cnn6CC(C)(C)O)c5C)nccc4cn3)C2)cc1 (racemic) [Ex 884, (3-((5-(1-(2-hydroxy-2-methylpropyl)-4-methyl-1H-indazol-5-yl)-2,6-naphthyridin-3-yl)amino)pyrrolidin-1-yl)(4-methoxyphenyl)methanone]	> 250 nM		< 25 nM				> 250 nM	> 250 nM
Cc1c(-c2nccc3cnc(NC4CCN(C(=O)c5ccccc5)C4)cc23)ccc2c1cnn2CC(C)(C)O (racemic) [Ex 885, (3-((5-(1-(2-hydroxy-2-methylpropyl)-4-methyl-1H-indazol-5-yl)-2,6-naphthyridin-3-yl)amino)pyrrolidin-1-yl)(phenyl)methanone]	> 250 nM		< 25 nM				> 250 nM	> 250 nM
Cc1c(-c2nccc3cnc(NC4CCN(C(=O)c5ccc(Cl)cc5)C4)cc23)ccc2c1cnn2CC(C)(C)O (racemic) [Ex 903, (4-chlorophenyl)(3-((5-(1-(2-hydroxy-2-methylpropyl)-4-methyl-1H-indazol-5-yl)-2,6-naphthyridin-3-yl)amino)pyrrolidin-1-yl)methanone]	> 250 nM		< 25 nM				> 250 nM	> 250 nM

Now from value to compound:

IC50 [1, 5]	IC50 [2, 6]	IC50 [3]	IC50 [4, 7]	IC50 ([1]; 25-250 nM, read-out: CDK1/CCNB IC50, 25-250 nM)	IC50 ([2]; <25 nM, read-out: CDK4/CCND IC50, column <25 nM)	IC50 [2, 8]	IC50 [4, 9]	SMILES
> 250 nM	25 to 250 nM	< 25 nM	25 to 250 nM					Cc1c(-c2nccc3cnc(Nc4ccc(S(=O)(=O)NC5CCOC5)cc4)cc23)ccc2c1cnn2CC(C)(C)O (racemic) [Ex 770, 4-((5-(1-(2-hydroxy-2-methylpropyl)-4-methyl-1H-indazol-5-yl)-2,6-naphthyridin-3-yl)amino)-N-(tetrahydrofuran-3-yl)benzenesulfonamide]
> 250 nM	25 to 250 nM	< 25 nM	25 to 250 nM					Cc1c(-c2nccc3cnc(Nc4ccc(S(=O)(=O)NC5CCN(C)C5)cc4)cc23)ccc2c1cnn2CC(C)(C)O (racemic) [Ex 771, 4-((5-(1-(2-hydroxy-2-methylpropyl)-4-methyl-1H-indazol-5-yl)-2,6-naphthyridin-3-yl)amino)-N-(1-methylpyrrolidin-3-yl)benzenesulfonamide]
		< 25 nM	25 to 250 nM	25 to 250 nM	< 25 nM			Cc1c(-c2nccc3cnc(Nc4ccc(S(=O)(=O)NC5CCNC5)cc4)cc23)ccc2c1cnn2CC(C)(C)O (racemic) [Ex 791, 4-((5-(1-(2-hydroxy-2-methylpropyl)-4-methyl-1H-indazol-5-yl)-2,6-naphthyridin-3-yl)amino)-N-(pyrrolidin-3-yl)benzenesulfonamide]
